Measurements published in PubChem BioAssay AID179 (DTP/NCI, 2004).
Where “and” joins values, the source holds several entries; their conditions need not be identical. Identical values can stand only once. Calls of active or inactive are those of the source.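 How the source made its calls: active means compounds giving half or more protection of infected cells from virus-caused growth loss, again on retest; inactive means the rest.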

Tested on: CEM cells HIV-1 protection, formazan growth assay
Assay: NCI AIDS Antiviral Assay
Details: for IC50: measured here: growth of uninfected CEM cells
Experimental: The ability of compounds to protect human CEM cells from HIV-1 infection is measured as a screen for new compounds capable of inhibiting the HIV virus. Five concentrations of drug were tested on uninfected and infected cells and cell growth was measured using a soluble formazan assay. […] Compounds that provided at least 50% protection were retested. Compounds that provided at least 50% protection on retest were listed as moderately active. Compounds that reproducibly provided 100% protection were listed as confirmed active. […] Note that the inability to provide protection could be due to toxicity.

SMILES	outcome	EC50 [µM]	IC50
CC(CCC(=O)O)(c1ccc(O)c(CN(c2ccccc2)c2ccccc2)c1)c1ccc(O)c(CN(c2ccccc2)c2ccccc2)c1	inactive	–	–
O=C1c2ccccc2OP(=O)(OCC(F)(F)F)OC1(C(F)(F)F)C(F)(F)F (stereo unspecified)	–	> 575	126 µM
CCCCCCCCCCCCCCCCCCNc1ccn(C2OC(COP(=O)(O)OCC(COP(=O)(O)OCC3OC(n4cc(C)c(=O)[nH]c4=O)CC3N=[N+]=[N-])OC(=O)CCCCCCCCCCCCCCC)C(O)C2O)c(=O)n1 (stereo unspecified)	–	11.2	69.2 µM
CC(C)Oc1ccc(CNC2=NCCO2)c2ccccc12	–	> 200	17.8 µM
CC1(C)CCC2=C(O1)c1ccccc1C(=O)C2=O	–	> 200	0.912 µM and 1.07 µM
S=c1sscc1-c1ccccc1	–	> 200	186 µM
CN(C)c1ccc(/C=C(\C#N)c2ccccc2Cl)cc1	–	> 15.8	4.47 µM
OCC1OC(O)C(N=C/C=C/c2ccccc2)C(O)C1O (stereo unspecified)	–	> 200	22.9 µM
Nc1nn2cc3c(nc2c1N=Nc1ccc(Cl)cc1)-c1ccccc1CC3	–	> 100	> 100 µM
O=C(O)c1ccc(S(=O)(=O)c2ccccc2)c([N+](=O)[O-])c1	–	> 2510	288 µM
O=C(O)c1cc(-c2c3ccc(=O)cc-3oc3cc(O)ccc23)c(C(=O)O)cc1-c1c2ccc(=O)cc-2oc2cc(O)ccc12	–	> 200	> 200 µM
CC(C)(C)OC(=O)CN1CCN(CC(=O)N2CCN(C(=O)OCc3ccccc3)CC2)CCN(CC(=O)OC(C)(C)C)CCN(CC(=O)N2CCN(C(=O)OCc3ccccc3)CC2)CC1	–	> 100	1.29 µM
NC(=S)C(=S)N=Cc1c(O)c2ccccc2oc1=O	–	> 200	102 µM
O=C1C[C@]2(CC(O)CO)CC(O1)[C@@H](I)CC21OCCO1 (stereo partly specified)	–	> 200	> 200 µM
C/C(CN1C(=O)c2ccccc2C1=O)=N\NS(=O)(=O)c1cccc([N+](=O)[O-])c1	–	> 617	> 617 µM
CS(=O)(=O)c1nc2ccc(N3C(=O)c4ccccc4C3=O)cc2s1	inactive	–	–
CC(CNN=C(N)N)NN=C(N)N (stereo unspecified)	–	> 200	> 200 µM
CC(C)c1ccc(/C=C(\NC(=O)c2ccccc2)c2nc3ccccc3[nH]2)cc1	–	> 49	> 49 µM
Cc1c2ccnc(C(N)=O)c2c(C)c2c1[nH]c1ccccc12	inactive	–	–
CCOC(=O)C1(C#N)OC(=O)c2cnccc21 (stereo unspecified)	–	> 200	> 200 µM
O=c1c(-c2ccc(Cl)cc2)nnc2n(Cc3ccccc3)c3ccccc3n12	–	> 200	> 200 µM

SMILES	outcome	EC50 [µM]	IC50
CC(C)=C1C(=O)C[C@@]2(C)C[C@H]3OC3(C)CC/C=C(/C)CCC12 (stereo partly specified)	inactive	–	–
COC(=O)[C@]1(NC(=O)c2ccccc2)C[C@H]1C=O	–	> 200	170 µM
Cc1c(N=Nc2ccccc2)c(-c2ccccc2)n(C2OC(CO)C(O)C(O)C2O)c(=S)c1C#N (stereo unspecified)	–	> 200	15.1 µM
C[N+](C)(C)CC1CCCC(C[N+](C)(C)C)C1=O (stereo unspecified)	inactive	–	–
O=C(CCCn1ccnc1[N+](=O)[O-])NCCn1ccnc1[N+](=O)[O-]	–	> 200	> 200 µM
O=C1c2c(Br)sc(Br)c2C(NC(=O)C(F)(F)F)C1O (stereo unspecified)	–	> 200	35.5 µM
O=C1c2ccccc2C(=O)c2c1sc1nc3ccccc3n21	–	> 200	8.91 µM
COc1ccc2nc3ccccc3c(NCCC[N+](C)(C)[O-])c2c1[N+](=O)[O-]	–	> 200	14.1 µM
O=C1CSc2ccccc2-n2cccc21	–	> 209	105 µM
CN1OC(CO)CC12C1CC3CC(C1)CC2C3 (stereo unspecified)	–	> 1050	537 µM
Cc1nc(N2N=C(c3ccc(Cl)cc3)CCC2=O)sc1[N+](=O)[O-]	–	> 74.1	32.4 µM
CC(C)/C(Cl)=N/OC(=O)Nc1cccc(C(F)(F)F)c1	–	> 20	3.02 µM
O=C(NC1C=Nc2ccc([N+](=O)[O-])cc2NC1=O)c1cc(Cl)cc([N+](=O)[O-])c1 (stereo unspecified)	–	> 447	155 µM
COC(=O)C1=COC(C)C2Cn3ccc4c5ccccc5nc-4c3CC12 (stereo unspecified)	–	> 129	75.9 µM
O=C(/C=C/c1c(O)ccc2ccccc12)c1cccc2ccccc12	–	> 162	112 µM
CSc1nc(C(N)=O)c(N)c(=O)[nH]1	–	> 468	126 µM
CCCCCC(=O)OCCOCCOCCOCCOCCOCc1ccccc1	inactive	–	–
CCc1ccc(C2=C(O)C(=O)C(c3ccc(CC)cc3)=C(O)C2=O)cc1	–	> 70.8	9.77 µM
O=c1cc(O)c2ccccc2o1	–	> 1550	617 µM
NC1=NS(=O)(=O)N=C(N)C1=Cc1ccc([N+](=O)[O-])o1	–	> 871	4.9 µM
O=c1[nH]cnc2cc3c(cc12)nc1n3CCOC1	–	> 52.5	> 52.5 µM

SMILES	outcome	EC50 [µM]	IC50
NC1=NN(c2ccccc2)C(=O)C1/C(=N\NC(=O)c1cc2ccccc2cc1O)C(=O)Nc1cccc(C(F)(F)F)c1 (stereo unspecified)	–	> 6.61	> 6.61 µM
O=C(CC/C(CC(=O)c1ccc(Br)cc1)=N\O)Nc1ccc(Cl)c(Cl)c1	–	> 79.4	16.2 µM
C#CC1(O)CCCCCCCCC2(CCCCCCCC1)OCCO2	–	> 200	25.7 µM
O=c1[nH]c(=O)n(C2OC(CO)C(O)C2O)c(NNc2ccccc2)c1NNc1ccccc1 (stereo unspecified)	–	145	> 200 µM
CCOc1ccc2nc(NC(=O)C(=O)C3C(=O)C(CC4C(=O)c5ccccc5C4=O)C(=O)CC3(C)C)sc2c1 (stereo unspecified)	–	> 6.92	> 6.92 µM
COc1ccc(N2C(=O)/C(=C\c3cc(OC)c(OC)c(OC)c3)SC2c2ccccc2)cc1 (stereo unspecified)	–	> 200	51.3 µM
CC1=NN(C(=O)Cc2ccccc2)C(=O)/C1=C\c1ccco1	–	> 64.6	> 64.6 µM
CCOC(=O)C1(Cc2ccc3c(c2)CCC3)Cc2cc3c(cc2C1=O)CCC3 (stereo unspecified)	–	> 200	23.4 µM
c1ccc2sc(NCCSSCCNc3nc4ccccc4s3)nc2c1	–	> 200	23.4 µM
C/C(=N\N=C(\[Se])N1CCN(c2ccccn2)CC1)c1ccccn1	–	> 36.3	0.0155 µM
COc1ccc(N2C(=O)C3c4[nH]c5ccccc5c4C4CC(C)(C)CC(C)(C)C4C3C2=O)cc1 (stereo unspecified)	–	> 4.37	> 4.37 µM
CC1CCC(O)/C=C/C(=O)OC(C)C(O)/C=C/C(=O)O1 (stereo unspecified)	–	> 200	10 µM
C=C(c1ccccc1)[C@@]1(O)CC[C@@H]1N(CC#N)Cc1ccccc1	inactive	–	–
Cc1ccc(S(=O)(=O)N/N=C2/CCC3(O)CC2(C)CCC2[C@H]3CC2(C)C)cc1 (stereo partly specified)	–	> 200	33.9 µM
Cc1nc(-c2nc(C)c(C(=O)NNC(=O)C[n+]3ccccc3)s2)sc1C(=O)NNC(=O)C[n+]1ccccc1	–	> 57.5	> 57.5 µM
OCCC(N1CCOCC1)C(O)(c1ccccc1)c1ccccc1 (stereo unspecified)	–	> 200	> 200 µM
CCc1n[nH]c(=O)n1/N=C/c1ccccc1Cl	–	> 200	> 200 µM
C=CCCCC(C#N)(c1ccccc1)N1CCCC1 (stereo unspecified)	inactive	–	–
COc1ccc2nc3cc(Cl)ccc3c(Sc3ccccc3[N+](=O)[O-])c2c1	–	> 9.55	> 9.55 µM
CC(C)(C)C1=CC(O)(c2c3ccccc3c(C3(O)C=C(C(C)(C)C)C(=O)C(C(C)(C)C)=C3)c3ccccc23)C=C(C(C)(C)C)C1=O	–	> 100	> 100 µM
